Measured values published in patent US9908896B2, “P38 and JNK MAPK inhibitors for the treatment and prophylaxis of degenerative diseases of the nervous system” (ALLINKY BIOPHARMA, priority 2014, dated 2018).

Key:
[1] = target: T1, recombinant activated p38alpha (Homo sapiens, UniProt Q16539); test: in vitro kinase assay p38 (ADP-Glo); format: biochemical; details: 100 μM ATP
T1 construct: purchased ProQinase
Method: (§1) Purified recombinant activated p38alpha (10 nM)(ProQinase) was preincubated 10 minutes at 30° C. with the compound of interest at concentrations between 1 and 100 μM in duplicate in a final volume of 30 μl of kinase buffer (Hepes 60 mM pH 7.5, MgCl2 3 mM, MnCl2 3 mM, sodium orthovanadate 3 μM, DTT 1.2 mM). After preincubation, peptide substrate (SignalChem #P03-58) and ATP were added to a final concentration of 10 μM and 100 μM respectively, and then incubated 40 minutes at 30° C. for the kinase reaction. Phosphorylation was analysed with ADP-Glo™ (Promega #V9101) and emitted luminescence was measured with BMG Fluostar microplate reader.

[2] = system: recombinant activated JNK; test: in vitro kinase assay JNK (ADP-Glo); format: biochemical; details: 100 μM ATP
Method: as §1, with “JNK” for “p38alpha”, “nM) (ProQinase)” for “nM)(ProQinase)”, “analyzed” for “analysed”

[3] = system: Aβ25-35-induced Aβ1-42 accumulation in the rat hippocampus; test: Aβ1-42 content in hippocampus by ELISA after i.c.v. Aβ25-35 injection; format: in vivo, male Sprague Dawley rats; details: 10 mg/kg i.v. once a day; after Aβ25-35 injection; vs Sc.Aβ/Veh group
Method: The compound efficacy was evaluated 7 days after the peptide administration, on: • the attenuation of the Aβ25-35-induced learning deficits (recognition long-term memory: novel object recognition); • the attenuation of the Aβ25-35-induced Aβ^1-42 accumulation in the rat hippocampus.
One administration procedure was examined: the compound 1 (10 mg/kg) administered intraveinously (i.v.) once a day during 9 days.
On day 10, all animals were sacrificed, the frontal cortex and hippocampi dissected out. One hippocampus was used for the ELISA analyses of Aβ1-42 content.
Samples were prepared from one hippocampus tissues of each rat per group and homogenized in an extraction buffer specific to the commercial ELISA assay kits.
After thawing, the hippocampus were homogenized in 50 mM Tris-150 mM NaCl buffer, pH 7.5, and sonicated for 20 s. After centrifugation (16,100 g for 15 min, 4° C.), supernatants were used for Aβ1-42 ELISA assay according to the manufacturer instructions. Absorbance was read at 450 nm and sample concentration was calculated using the standard curve. Results will be expressed in pg of Aβ1-42 per mg of tissue. […]
All values were expressed as mean±S.E.M. Statistical analyses were performed on the different conditions using one-way ANOVA (F value), followed by the Dunnett's post-hoc multiple comparison test. p<0.05 was considered as statistically significant.

T1 sequence (Q16539 whole entry): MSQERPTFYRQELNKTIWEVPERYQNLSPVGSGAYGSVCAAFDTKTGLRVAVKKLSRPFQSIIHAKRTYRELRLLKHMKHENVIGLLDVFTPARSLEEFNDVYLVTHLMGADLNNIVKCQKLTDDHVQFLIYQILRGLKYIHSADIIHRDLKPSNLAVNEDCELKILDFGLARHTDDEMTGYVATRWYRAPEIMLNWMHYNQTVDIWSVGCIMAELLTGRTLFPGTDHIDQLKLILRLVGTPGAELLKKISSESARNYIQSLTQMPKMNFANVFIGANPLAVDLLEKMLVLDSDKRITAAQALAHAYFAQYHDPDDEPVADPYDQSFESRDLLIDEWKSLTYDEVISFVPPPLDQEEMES

## CCCOc1ccc(Nc2nc3nonc3nc2N2CCC(Oc3ccc(Cl)cc3)CC2)cc1 [Comp 1]
[1]; 1 μM compound
  inhibition at 1 µM: 37%
[1]; 10 μM compound
  inhibition at 10 µM: 99%
[2]; 1 μM compound
  % of inhibition at 1 μM, JNK: 49%
[2]; 10 μM compound
  % of inhibition at 10 μM, JNK: 98%
[3]
  Aβ1-42 level in the hippocampus: decreased the Aβ1-42 level increase
